In assay [1] the test system is A375 (EGFR wt, BRAF V600E). The experiment in a line: Growth inhibition GI50 in vitro (CCK8/MTT, 72 h). The settings on record: Homo sapiens, A-375. Format: cell-based. An excerpt:
EGFR wild type cell lines: human epidermal cancer cell line A431 (EGFR WT, amplification and high expression, from Shanghai Cell Bank of Chinese Academy of Sciences and ATCC), NSCLC cell lines NCI-H460 (EGFR WT, Kras G61H and PI3KCA E545K mutants, ATCC) and NCI-H1299 (EGFR WT, ATCC), melanoma cell line A375 (EGFR WT and BRAF V600E mutant, from Shanghai Cell Bank of Chinese Academy of Sciences, ATCC), human lung cancer cell line NCI-H292 (EGFR WT, from human lung mucoepidermoid carcinoma/lymphatic metastasis, purchased from Shanghai Cell Bank of Chinese Academy of Sciences) were cultured with 1×RPMI1640 complete medium which was supplement with 10% FBS. NSCLC cell line A549 (EGFR WT and Kras G12S mutant, from Shanghai Cell Bank of Chinese Academy of Sciences) was cultured with 1×Ham'S F12K complete medium which was supplement with 10% FBS, 1% double-antibiotics and 2 mM glutamine.
(§1) The suspension cells were collected by centrifugation. The supernatant was discard and the cell pellet was resuspended and counted. Different cell concentrations (5˜10×10^4 cells/mL) were prepared according to the growth cycle of each cell line and then seeded on a 96-well plate (Corning), 100 μL/well. The cells were incubated over night at 37° C., 5% CO2. The compounds were added to the cells on the second day with 2 wells in parallel. The final concentration of organic solvent shall not exceed 1%. The cells were continually incubated for 72 h, and then subjected to MTT assay.
(§2) The present compounds and the reference compounds were dissolved with DMSO (Sigma), respectively. […] The storage concentration of compounds was 10 mM and kept at −20° C. They were diluted by 2 times or 10 times with serial dilution before using.
(§3) Dojindo CCK8 reagent kit was used as MTT assay. […] FC meter was used as microplate reader.
(§4) Adherent cell culture medium was discard and immediately replaced with fresh prepared medium which contains 10% CCK8 reagent (100 μL/well). For the suspension cells, CCK8 was directly added to 10% of the final concentration. The cells were continually incubated for 1˜4 h. When the color of control wells turned to dark yellow, the absorption value was measured at OD450 nm. The cell growth rate was calculated according to the following formula: cell growth rate (%)=100*(T−T0)/(C−T0), T=optical density of drug treatment cell well—optical density of blank control well; T0=optical density of cell well before drug treatment—optical density of blank control well; C=optical density of cell well of solvent control group—optical density of blank control well. […] The experiment was independently repeated 1˜3 times, and subject to biological statistical analysis.
(§5) Growth inhibition assay was conducted in the cell lines shown Table 14 with the different oncogene mutations. Each compound started at 1000 nM as an initial concentration and was diluted by 2 times with serial dilution to 0.03 nM.

Another assay concerns Kasumi-1 (Kit N822K). The experiment in a line: Growth inhibition GI50 in vitro (CCK8/MTT, 72 h). Format: cell-based. The settings on record: Homo sapiens. The procedure:
Kasumi-1 is a leukemia cell line positively expressing c-Kit N822K mutant Abnormal variation of c-Kit often appears in cancer patients. Kasumi-1 cell line was cultured with 1×RPMI1640 complete medium (supplement with 10% FBS).
as §1, §2, §3, §4, §5

Another assay relates to Karpas-299 (NPM-ALK). The experiment in a line: Growth inhibition GI50 in vitro (CCK8/MTT, 72 h). Format: cell-based. The settings on record: Homo sapiens, Karpas-299, EGFR wt.
In the next assay the test system is HEL (Jak2 V167F). The experiment in a line: Growth inhibition GI50 in vitro (CCK8/MTT, 72 h). Type of assay: cell-based. The settings on record: Homo sapiens. The procedure:
Jak2 is a kind of non-receptor PTK (Janus Kinase 2) with great significance in cell growth, differentiation and transformation. Jak2 gene mutation often leads to bone marrow hyperplasia and transformation. Especially Jak2 V167F mutation is common for clinical patients. Human erythroleukemia cell line HEL expressing Jak2 V167F was cultured with 1×RPMI1640 complete medium (supplement with 10% FBS).
as §1, §2, §3, §4, §5

Assay [2] relates to HER2/ErbB2 amplified cell line N87. The experiment in a line: In vivo tumor growth inhibition, xenograft. More on the design: species or system Bab/c nude mice. The conditions noted are these: Mus musculus, po, 456 h, 25 mg/kg intragastric once daily, day 19, read-out: TGI (%). An excerpt:
(§6) Tumor xenograft models of immunodeficient mice are an effective tool to test the antitumor activity of the compound in vivo. Generally, the effectiveness of human tumor cell xenograft is positively correlated with the clinical treatment of human tumor. Bab/c immunodeficient mouse is one of the most commonly used xenograft animals with human tumor cells. In order to test whether the present compounds can inhibit the in vivo growth of the tumor cells expressing EGFR mutantion or HER2/ErbB2 overexpression, H1975, PC-9 and NCI-N87 cell lines were used in the experiments. When H1975, PC-9 and NCI-N87 cells were in growth logarithmic phase, they were digested with pancreatin. An appropriate amount of 1×RPMI1640 culture medium (serum-free) was added to stop digestion. The cells were collected to a 50 ml centrifuge tube (Corning), and centrifuged at 1700 rm for 3 min. The supernatant was discard, then the cells were suspended with 1×RPMI1640 culture medium and count the number. […] cells/mL was prepared and then placed on ice. 5˜10×10^6 (0.2 ml) cells were inoculated subcutaneously on the right side of the back of 6˜8 week old female Bab/c nude mice (about 20 g in weight). When the tumor average volume growed to 100˜200 mm^3, the mice were randomly divide into groups (3-6 mice per group), and marked by ear pierced tags and weighted. The test compounds and the reference compound (with a purity over 99% and individual impurity not higher than 0.2%) were formulated to emulsion suspension with CM (30% polyethylene glycol 400, 0.5% Tween-80 and 2.5% propylene glycol) respectively. Intragastric administration was continued once daily at a dosage of 25 mg/kg (0.1 ml/10 g mouse). The tumor was measured 3 times per week. When the average volume of the tumor in CM control group was up to 1500 mm^3 or after administration for 30 days, the experiment was ended.
(§7) The volume of tumor (V) was calculated as V=½*a*b^2 (a represents length of tumors, b represents width of tumors). Tumor growth inhibition (TGI) was calculated as: TGI (%)=100−(VT−VT0)/(VC−VC0)*100%; where VT0 and VT are the tumor volumes of the beginning and finish days of dosed groups; and VC0 and VC are the tumor volumes of the beginning and finish days for the control group, respectively.

A further assay deals with PC-9 tumor cells. As to the kind of experiment: In vivo tumor growth inhibition, xenograft. More on the design: species or system Bab/c nude mice. The conditions noted are these: Mus musculus, po, 456 h; 25 mg/kg intragastric once daily, day 19; read-out: TGI (%) PC-9.
Text: as §6, §7

The test system of a further assay is H1975 tumor cells. As to the kind of experiment: In vivo tumor growth inhibition, xenograft. More on the design: species or system Bab/c nude mice. The conditions noted are these: Mus musculus, NCI-H1975, po, 456 h; 25 mg/kg intragastric once daily, day 19; read-out: TGI (%) H1975.
Text: as §6, §7

Setting [3] is: A375, EGFR wt, BRAF V600E, read-out: GI50.
The mark [4] stands for this setting: HEL, Jak2 V167F, read-out: GI50.

Where two headings read alike, the source gives them in different places.

By GI50 is commonly meant the concentration that inhibits growth by half. For `C=CC(=O)Nc1cc(Nc2nccc(Nc3cccc(Cl)c3)n2)c(OC)cc1N(C)CCN(C)C` [Compound 2, N-(5-(4-(3-chloro-phenylamino)-pyrimidin-2-ylamino)-2-(2-(dimethylamino-ethyl)-methyl-amino)-4-methoxyl-phenyl)-acrylamide], the GI50 was over 1 µM in assay [1] (setting [3]), over 1 µM in the assay with Kasumi-1 (Kit N822K), 0.5 µM with Karpas-299 (NPM-ALK) and over 1 µM in the assay with HEL (Jak2 V167F) (setting [4]).
Consider `C=CC(=O)Nc1cc(Nc2nccc(-n3cnc4ccccc43)n2)c(OC)cc1N(C)CCN(C)C` [Compound 106], for which the GI50 (in assay [1] (setting [3]); in the assay on Kasumi-1 (Kit N822K); in the assay with Karpas-299 (NPM-ALK); with HEL (Jak2 V167F) (setting [4])) was over 1 µM throughout.
Take `C=CC(=O)Nc1cc(Nc2cc(Nc3cc(OC)c(Cl)cc3Cl)ncn2)c(OC)cc1N(C)CCN(C)C` [Compound 136, N-(5-(6-(2,4-dichloro-5-methoxyl-phenylamino)-pyrimidin-4-ylamino)-2-((2-dimethylamino-ethyl)-methyl-amino)-4-methoxyl-phenyl)-acrylamide]: the inhibition in vivo at 25 mg/kg in assay [2] stood at 96.7%.
In the case of `C=CC(=O)Nc1cc(Nc2ncc(Cl)c(Nc3ccc(OCc4ccccn4)c(Cl)c3)n2)c(OC)cc1N(C)CCN(C)C` [Compound 19, N-(5-(5-chloro-4-(3-chloro-4-(pyridin-2-methoxyl)phenylamino)-pyrimidin-2-ylamino)-2-((2-(dimethylamino)ethyl)(methyl)amino)-4-methoxyl-phenyl)-acrylamide], the GI50 in assay [1] (setting [3]) was over 1 µM; with Kasumi-1 (Kit N822K) it was over 1 µM; with Karpas-299 (NPM-ALK) it was 0.5 µM; with HEL (Jak2 V167F) (setting [4]), over 1 µM.
Take `C=CC(=O)Nc1cc(Nc2cc(Nc3ccc(F)c(Cl)c3)ncn2)c(OC)cc1N1CCN(C2CCN(C)CC2)CC1` [Compound 147, N-(5-(6-(3-chloro-4-fluoro-phenylamino)-pyrimidin-4-ylamino)-4-methoxyl-2-(4-(1-methylpiperidin-4-yl)-piperazin-1-yl)-phenyl)-acrylamide]: the GI50 (in assay [1] (setting [3]); with Kasumi-1 (Kit N822K); in the assay on Karpas-299 (NPM-ALK); in the assay with HEL (Jak2 V167F) (setting [4])) was over 1 µM each time.
Consider `C=CC(=O)Nc1cc(Nc2cc(Nc3ccc(F)c(Cl)c3)ncn2)c(OC)cc1N(C)CCN(C)C` [Compound 140, N-(5-(6-(3-chloro-4-fluoro-phenylamino)-pyrimidin-4-ylamino)-2-((2-dimethylamino-ethyl)-methyl-amino)-4-methoxyl-phenyl)-acrylamide], for which the GI50 (in assay [1] (setting [3]); with Kasumi-1 (Kit N822K); with Karpas-299 (NPM-ALK); in the assay with HEL (Jak2 V167F) (setting [4])) was over 1 µM each time. Also, the inhibition in vivo at 25 mg/kg in the assay on PC-9 tumor cells amounted to 97.9%; in the assay on H1975 tumor cells, 98.4%.
Consider `C=CC(=O)Nc1cc(Nc2cc(Nc3cc(F)c(OC)c(Cl)c3)ncn2)c(OC)cc1N(C)CCN(C)C` [Compound 236, N-(5-(6-(3-chloro-5-fluoro-4-methoxyphenylamino)-pyrimidin-4-yl-amino)-2-((2-dimethylamino-ethyl)-methyl-amino)-4-methoxyl-phenyl)-acrylamide], for which, in assay [2], the inhibition in vivo at 25 mg/kg amounted to 97.5%.
For the molecule `C=CC(=O)Nc1cc(Nc2ncnc(Nc3cccc(F)c3)n2)c(OC)cc1N(C)CCN(C)C` [Compound 114, N-(5-(4-(3-fluoro-phenylamino)-[1,3,5]triazin-2-ylamino)-2-((2-dimethylamino-ethyl)-methyl-amino)-4-methoxyl-phenyl)-acrylamide], the GI50 was 0.465 µM in assay [1] (setting [3]), under 0.1 µM in the assay on Kasumi-1 (Kit N822K), over 1 µM in the assay on Karpas-299 (NPM-ALK) and over 1 µM with HEL (Jak2 V167F) (setting [4]).
For `C=CC(=O)Nc1cc(Nc2nccc(-c3cn(C)c4ccccc34)n2)c(OC)cc1N(C)CCN(C)C` [AZD9291, reference compound], the GI50 (in assay [1]; in the assay with Kasumi-1 (Kit N822K); in the assay on Karpas-299 (NPM-ALK); with HEL (Jak2 V167F)) was over 1 µM throughout. Further, the inhibition in vivo at 25 mg/kg was determined as 97.2% with PC-9 tumor cells and 98.4% in the assay with H1975 tumor cells.
As to `C=CC(=O)Nc1cc(Nc2nccc(Nc3ccc(OCc4ccccn4)c(Cl)c3)n2)c(OC)cc1N(C)CCN(C)C` [Compound 18, N-(5-(4-(3-chloro-4-(pyridin-2-methoxyl)phenylamino)pyrimidin-2-ylamino)-2-((2-(dimethylamino)ethyl)(methyl)amino)-4-methoxyl-phenyl)-acrylamide], the GI50 (in assay [1] (setting [3]); in the assay with Kasumi-1 (Kit N822K); with Karpas-299 (NPM-ALK); in the assay on HEL (Jak2 V167F) (setting [4])) was over 1 µM in each case. Also, the inhibition in vivo at 25 mg/kg with PC-9 tumor cells was 98.3%; with H1975 tumor cells, 96.7%.
For `C=CC(=O)Nc1cc(Nc2cc(Nc3ccc(OCC4CCOCC4)c(Cl)c3)ncn2)c(OC)cc1N(C)CCN(C)C` [Compound 216, N-(5-(6-(3-chloro-4-(tetrahydropyran-4-yl-methoxyl)-phenylamino)-pyrimidin-4-ylamino)-2-((2-dimethylaminoethyl)-methyl-amino)-4-methoxyphenyl)-acrylamide], the inhibition in vivo at 25 mg/kg in assay [2] is 97.6%.
Consider `C=CC(=O)Nc1cc(Nc2ncnc(Nc3cccc(Br)c3)n2)c(OC)cc1N1CCC(N2CCCC2)CC1` [Compound 118], for which the concentration for 50% growth inhibition (GI50) was 0.465 µM in assay [1] (setting [3]), under 0.1 µM in the assay with Kasumi-1 (Kit N822K), 0.5 µM in the assay on Karpas-299 (NPM-ALK) and over 1 µM in the assay on HEL (Jak2 V167F) (setting [4]).
In the case of `C=CC(=O)Nc1cc(Nc2nccc(-n3ccc4c(OCCOC)cccc43)n2)c(OC)cc1N(C)CCN(C)C` [Compound 205, N-(5-(4-(4-(2-methoxyl-ethoxyl)-1H-indol-1-yl)-pyrimidin-2-ylamino)-2-(2-(dimethylamino-ethyl)-methyl-amino)-4-methoxyl-phenyl)-acrylamide], the inhibition in vivo at 25 mg/kg in the assay with PC-9 tumor cells was 96.5%; in the assay on H1975 tumor cells, 99.5%.

These data come from patent publication US10342796B2, “Acrylanilide derivative, preparation method, and applications thereof in pharmacy” (Ancureall Pharmaceutical (Shanghai) Co., Ltd., priority 2015, dated 2019).
